Here are results for 18 molecules from patent publication US7989480B2, “Aryl amino acid derivatives as inhibitors for treating inflammation” (Decode Genetics EHF, priority 2006, dated 2011).

pIC50: −log10 of the molar value. Counter-ions that a name gives are not always drawn. Like-named read-outs stand apart in the source and are kept apart here.

For assay [1], the target named is T1, LTA4H (leukotriene A4 hydrolase) (Homo sapiens, UniProt P09960).
T1 sequence (P09960 1-611): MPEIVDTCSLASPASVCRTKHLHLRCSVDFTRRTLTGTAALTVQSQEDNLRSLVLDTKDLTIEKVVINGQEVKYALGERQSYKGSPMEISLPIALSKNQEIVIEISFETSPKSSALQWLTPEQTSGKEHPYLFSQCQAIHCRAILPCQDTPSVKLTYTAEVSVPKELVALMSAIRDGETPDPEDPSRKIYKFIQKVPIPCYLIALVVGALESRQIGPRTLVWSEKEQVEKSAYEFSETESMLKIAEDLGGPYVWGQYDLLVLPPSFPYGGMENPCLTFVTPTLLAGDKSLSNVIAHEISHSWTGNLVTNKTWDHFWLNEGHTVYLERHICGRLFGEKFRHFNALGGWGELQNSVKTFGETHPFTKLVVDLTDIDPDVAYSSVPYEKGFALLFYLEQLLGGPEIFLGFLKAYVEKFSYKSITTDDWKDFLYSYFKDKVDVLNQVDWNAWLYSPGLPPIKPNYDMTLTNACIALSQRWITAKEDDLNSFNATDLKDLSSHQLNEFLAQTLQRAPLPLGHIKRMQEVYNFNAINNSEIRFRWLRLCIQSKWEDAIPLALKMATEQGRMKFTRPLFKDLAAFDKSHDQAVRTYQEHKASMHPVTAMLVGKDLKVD
Description: LTA4H enzyme inhibition (EnzIC50). The assay is classed as biochemical.

In assay [2] the test system is hWB. Description: hWB assay. In kind it is cell-based. As to conditions: Homo sapiens.
Assay [3] concerns colitis symptoms. The settings on record: eight weeks of treatment, primate model; cited from earlier work.
Assay [4] concerns ionophore-induced LTB4 production. The settings on record: oral administration, rat peritoneum in vivo; cited from earlier work.
Assay [5] shares this test system. The settings on record: oral administration, mouse blood ex vivo; cited from earlier work.

On to `COC(=O)[C@H](N)Cc1ccc(Oc2ccc(Oc3ccccc3)cc2)cc1` [Example 1, (R)-2-Amino-3-[4-(4-phenoxy-phenoxy)-phenyl]-propionic acid methyl ester hydrochloride], for which the pIC50 in assay [1] was 4.70 to 5.30.

In turn, `COC(=O)[C@H](N)Cc1ccc(Oc2ccc(C(=O)c3ccccc3)cc2)cc1` [Example 2, (R)-2-Amino-3-[4-(4-benzoyl-phenoxy)-phenyl]-propionic acid methyl ester hydrochloride] had a pIC50 in assay [1] above 5.30.

As for `N[C@@H](CO)Cc1ccc(Oc2ccc(Oc3ccccc3)cc2)cc1` [Example 3, (R)-2-Amino-3-[4-(4-phenoxy-phenoxy)-phenyl]-propan-1-ol hydrochloride], the pIC50 in assay [1] was above 5.30.

For `N[C@H](CO)Cc1ccc(Oc2ccc(Oc3ccccc3)cc2)cc1` [Example 4, (S)-2-Amino-3-[4-(4-phenoxy-phenoxy)-phenyl]-propan-1-ol hydrochloride], the pIC50 was above 5.30 in assay [1] and 4.70 to 5.30 in assay [2].

In assay [1], `N[C@@H](Cc1ccc(Oc2ccc(Cc3ccc(Cl)cc3)cc2)cc1)C(=O)O` [Example 5, S)-2-Amino-3-{4-[4-(4-chloro-benzyl)-phenoxy]-phenyl}-propionic acid hydrochloride] showed a pIC50 of 4.70 to 5.30.

Take `N[C@@H](Cc1ccc(Oc2ccc(Oc3ccccc3)cc2)cc1)C(=O)O` [Example 6, (2S)-2-Amino-3-[4-(4-phenoxyphenoxy)phenyl]propanoic acid hydrochloride]: the pIC50 in assay [1] and in assay [2] was above 5.30 each time.

The molecule `CN[C@H](CO)Cc1ccc(Oc2ccc(Oc3ccccc3)cc2)cc1` [Example 8, (2S)-2-(Methylamino)-3-[4-(4-phenoxyphenoxy)phenyl]propan-1-ol hydrochloride] showed a pIC50 in assay [1] of 4.70 to 5.30.

As to `CN[C@H](CO)Cc1ccc(Oc2ccc(Cc3ccccc3)cc2)cc1` [Example 9, (2S)-3-[4-(4-Benzylphenoxy)phenyl]-2-(methylamino)propan-1-ol hydrochloride], the pIC50 in assay [1] is 4.70 to 5.30.

For `N[C@@H](Cc1ccc(Oc2ccc(Oc3ccccc3)cc2)cc1)C(O)C(=O)O` (stereo partly drawn) [Example 10, (3S)-3-Amino-2-hydroxy-4-[4-(4-phenoxyphenoxy)phenyl]butanoic acid hydrochloride], the pIC50 in assay [1] is above 5.30.

Take `N[C@@H](Cc1ccc(Oc2ccc(Oc3ccc(-c4nccs4)cc3)cc2)cc1)C(=O)O` [Example 11, (S)-2-Amino-3-{4-[4-(4-thiazol-2-yl-phenoxy)-phenoxy]-phenyl}-propionic acid]: the pIC50 in assay [1] was above 5.30.

On to `N[C@H](CO)Cc1ccc(Oc2ccc(Oc3ccc(-c4nccs4)cc3)cc2)cc1` [Example 12, (S)-2-Amino-3-{4-[4-(4-thiazol-2-yl-phenoxy)-phenoxy]-phenyl}-propan-1-ol], for which the pIC50 in assay [1] and in assay [2] was above 5.30 in each case.

In the case of `N[C@H](CNO)Cc1ccc(Oc2ccc(Oc3ccc(Cl)cc3)cc2)cc1` [Example 14], the pIC50 in assay [1] and in assay [2] was above 5.30 each time.

On to `N[C@@H](C(=O)O)c1ccc(Oc2ccc(Cc3ccccc3)cc2)cc1` [Example 15, (R)-Amino-[4-(4-benzyl-phenoxy)-phenyl]-acetic acid hydrochloride], for which the pIC50 in assay [1] is above 5.30.

On to `COc1ccc(Oc2ccc(C[C@H](N)CO)cc2)cc1` [Example 19, (S)-2-Amino-3-[4-(4-methoxyphenoxy)-phenyl]-propan-1-ol hydrochloric acid salt], for which the pIC50 in assay [1] was above 5.30.

In the case of `N[C@H](CO)Cc1ccc(Oc2ccc(Cc3ccccc3)cc2)cc1` [Example 20, (S)-2-Amino-3-[4-(4-benzylphenoxy)-phenyl]-propan-1-ol hydrochloric acid salt], the pIC50 in assay [1] and in assay [2] was above 5.30 throughout.

Take `N[C@H](CNO)Cc1ccc(Oc2ccc(Cl)cc2)cc1` [Example 21, N-{(S)-2-amino-3-[4-(4-chloro-phenoxy)-phenyl]-propyl}-hydroxyamine HCl salt]: the pIC50 in assay [1] was above 5.30.

On to `CC(=O)N(O)C[C@@H](N)Cc1ccc(Oc2ccc(Cl)cc2)cc1` [Example 22, N-{(S)-2-amino-3-[4-(4-chloro-phenoxy)-phenyl]-propyl}-N-hydroxy-acetamide HCl salt], for which the pIC50 in assay [1] and in assay [2] was above 5.30 throughout.

Consider `CN(CCCOc1ccc(Cc2ccccc2)cc1)CCC(=O)O.Cl` [SC57461], for which, in assay [3], the colitis symptoms entry is recorded as “significantly improved colitis symptoms”. In addition, the “inhibition of ionophore-induced LTB4 production” value in assay [4] and in assay [5] was “inhibition of ionophore-induced LTB4 production” in each case.

Usually pIC50 stands for −log10 of the IC50, conventionally taken in molar units. Read a high pIC50 as a low IC50.
